Results: US10077243B2, “Compounds for treating disorders mediated by metabotropic glutamate receptor 5, and methods of use thereof” (Sunovion Pharmaceuticals Inc., priority 2009, dated 2018)

Biological target: T1, human mGluR5 (Homo sapiens, UniProt P41594)
T1 construct: expressed in transfected cells; host or cells: HEK293 cells stably expressing rat GLAST (EAAT1), stably transfected with pcDNAzeo3.1 carrying synthetic human mGluR5 DNA; zeocin-selected single clones
Experiment: In vitro cell-based FLIPR calcium assay for positive modulation of the activation of mGluR5 by glutamate (PAM EC50)
Settings: HEK293/GLAST cells expressing recombinant human mGluR5; FLIPR calcium signal; glutamate added at its EC20; read-out: mGluR5 PAM EC50
Description: The DNA sequences encoding the structural regions for rat mGluR5 [Abe T, Sugihara H, Nawa H, Shigemoto R, Mizuno N, Nakanishi S (1992) “Molecular characterization of a novel metabotropic glutamate receptor mGluR5 coupled to inositol phosphate/Ca^2+ signal transduction” Journal of Biological Chemistry vol. 267, no. 19, pp. 13361-8] and human mGluR5 [Daggett L P, Sacaan A I, Akong M, Rao S P, Hess S D, Liaw C, Urrutia A, Jachec C, Ellis S B, Dreessen J, Knöpfel T, Landwehrmeyer G B, Testa C M, Young A B, Varney M, Johnson E C, Veliçelebi (1995) “Molecular and functional characterization of recombinant human metabotropic glutamate receptor subtype 5” Neuropharmacology vol. 34, no. […] 53, no. 3, pp. 355-369] was obtained from Dr. Michael Robinson of the Children's Hospital of Philadelphia under a Material Transfer Agreement. The pcDNAzeo3.1 vector DNA, carrying either rat mGluR5 or human mGluR5, was used to transfect a sample of the HEK293/GLAST cells, and single clones that express mGluR5 were isolated from the transfected cells using zeocin selection. Expression of mGluR5 was assessed by measurement of the transient fluorescence signal elicited from HEK293/GLAST/mGluR5 cells by glutamate following the loading of the cells with a calcium-sensitive dye using a FLIPR Tetra (Fluorometric Imaging Plate Reader) (Molecular Devices, Sunnyvale, Calif.) [O'Brien J A, Lemaire W, Chen T B, Chang R S, Jacobson M A, Ha S N, Lindsley C W, Schaffhauser H J, Sur C, Pettibone D J, Conn P J, Williams D L Jr. […] 64, no. 3, pp. 731-740; Assay Guidance Manual Version 5.0, 2008, Eli Lilly and Company and NIH Chemical Genomics Center; available online HEK293/GLAST/mGluR5 cells were grown in Dulbecco's Modified Eagle Medium (DMEM) supplemented with 10% dialyzed fetal bovine serum, 20 millimolar (mM) N-2-hydroxyethylpiperazine-N′-2-ethanesulfonic acid (HEPES), penicillin, streptomycin, 1% GlutaMax™ (Invitrogen) and 50 μg/ml zeocin. Cells were grown in the media to 70-80% confluency at 37° C. under 5% CO2, 95% humidity in poly-D-lysine coated coated flasks. Cells for assays were plated into 96-well sterile standard microtiter plates (pre-coated with poly-D-lysine) at a density of 50,000 cells per well in 0.2 milliliters of media. Plated cells were allowed to settle and adhere for 30 minutes at ambient conditions, and then were incubated overnight at 37° C. under 5% CO2, 95% humidity. Several such 96-well plates were typically prepared. On the day of the assays, the components of the FLIPR calcium 4 assay kit (Molecular Devices) were dissolved according to the instructions of the dye kit's manufacturer in assay buffer (Hank's balanced salt solution (HBSS) (Gibco) supplemented with 20 mM HEPES). After removal of the growth media from the first plate, cells were loaded with calcium dye by addition of calcium dye solution (50 microliters per well) and incubation at 25° C. for 45 to 60 minutes. The first plate was placed into the FLIPR Tetra, and a dilution series of glutamate solutions in assay buffer were added to wells on the plate, followed by acquisition of fluorescence data for several minutes. The fluorescence data (maximal signal as a 4-parameter sigmoidal function of log [glutamate]) were processed by non-linear regression methods using the software package GraphPad Prism 5.01 (GraphPad Software Inc.), to yield a glutamate concentration-response curve (CRC). […] These values were, respectively, the concentrations of glutamate that elicit 20%, 50%, and 80% of the maximal FLIPR signal (observed at saturating [glutamate]). The method for measuring the concentration response of a potentiator, or positive allosteric modulator (PAM), is described here as an example. For that purpose, subsequent assays were typically performed using assay buffer containing a glutamate concentration equal to that day's EC20. […] Addition to certain wells of the same buffer containing 0.3% DMSO, but without any test compound, provided a negative control.

T1 sequence (P41594 21-1212): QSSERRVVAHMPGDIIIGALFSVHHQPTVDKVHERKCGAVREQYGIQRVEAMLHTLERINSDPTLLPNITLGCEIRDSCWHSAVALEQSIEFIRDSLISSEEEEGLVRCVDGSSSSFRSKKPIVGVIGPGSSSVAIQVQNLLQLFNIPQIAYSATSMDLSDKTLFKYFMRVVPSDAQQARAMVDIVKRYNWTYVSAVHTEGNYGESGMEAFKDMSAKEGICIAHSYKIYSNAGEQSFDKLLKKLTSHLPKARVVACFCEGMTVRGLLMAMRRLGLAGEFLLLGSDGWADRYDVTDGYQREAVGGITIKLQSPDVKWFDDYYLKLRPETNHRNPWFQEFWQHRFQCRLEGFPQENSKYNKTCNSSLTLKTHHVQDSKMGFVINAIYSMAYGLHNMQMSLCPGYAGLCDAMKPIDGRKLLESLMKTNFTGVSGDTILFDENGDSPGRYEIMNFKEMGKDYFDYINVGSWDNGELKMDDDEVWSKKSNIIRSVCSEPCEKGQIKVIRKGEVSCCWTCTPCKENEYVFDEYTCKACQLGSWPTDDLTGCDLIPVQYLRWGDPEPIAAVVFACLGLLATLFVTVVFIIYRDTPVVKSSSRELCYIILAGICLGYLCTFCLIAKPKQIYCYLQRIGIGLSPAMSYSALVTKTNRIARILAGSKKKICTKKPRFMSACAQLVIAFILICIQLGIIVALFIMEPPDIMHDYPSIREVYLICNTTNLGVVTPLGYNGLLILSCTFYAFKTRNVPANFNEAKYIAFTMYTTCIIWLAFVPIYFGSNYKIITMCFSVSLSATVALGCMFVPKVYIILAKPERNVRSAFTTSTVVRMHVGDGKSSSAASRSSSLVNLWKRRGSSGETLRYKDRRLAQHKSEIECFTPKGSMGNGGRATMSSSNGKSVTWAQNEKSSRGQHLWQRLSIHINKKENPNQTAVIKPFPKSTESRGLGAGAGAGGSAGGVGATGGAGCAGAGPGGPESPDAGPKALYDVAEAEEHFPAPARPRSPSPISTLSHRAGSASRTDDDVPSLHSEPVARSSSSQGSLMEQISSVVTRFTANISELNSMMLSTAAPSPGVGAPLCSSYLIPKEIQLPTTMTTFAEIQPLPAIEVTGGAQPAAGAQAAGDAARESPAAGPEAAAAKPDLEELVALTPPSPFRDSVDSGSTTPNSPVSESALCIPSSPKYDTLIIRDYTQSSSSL

SMILES	EC50 [nM]
O=c1c2ccc(C#Cc3ccc(F)cc3)cc2ncn1CC1CCCO1 (single isomer, unassigned) [1.15/1.16 faster moving enantiomer (fraction 1), 7-((4-fluorophenyl)ethynyl)-3-((tetrahydrofuran-2-yl)methyl)quinazolin-4(3H)-one]	10 to 30
O=C(Nc1ccc(F)cc1)c1ccn2c(=O)c3c(nc2c1)CCCCCC3 [Example 28.2, N-(4-fluorophenyl)-12-oxo-7,8,9,10,11,12-hexahydro-6H-cycloocta[d]pyrido[1,2-a]pyrimidine-3-carboxamide]	300 to 1000
CC1(F)CCc2nc3cc(C#Cc4ccccn4)ccc3c(=O)n2CC1 (stereo not shown) [Example 6.48, 8-fluoro-8-methyl-3-(pyridin-2-ylethynyl)-7,8,9,10-tetrahydroazepino[2,1-b]quinazolin-12(6H)-one]	< 10
N#CCN1CCc2nc3cc(C#Cc4cccc(F)c4)ccc3c(=O)n2CC1 [Example 8.14, 2-(8-((3-fluorophenyl)ethynyl)-11-oxo-1,2,4,5-tetrahyrdro-[1,4]diazepino[7,1-b]quinazolin-3(11H)-yl)acetonitrile]	10 to 30
Cc1cnc(C#Cc2ccc3c(=O)n4c(nc3c2)CCC(C)CC4)s1 (stereo not shown) [Example 6.8, 8-methyl-3-((5-methylthiazol-2-yl)ethynyl)-7,8,9,10-tetrahydroazepino[2,1-b]quinazolin-12(6H)-one]	10 to 30
N#CCN1CCc2nc3cc(C#Cc4ccccn4)ccn3c(=O)c2C1 [Example 15.6, 2-(11-oxo-7-(pyridin-2-ylethynyl)-3,4-dihydro-1H-dipyrido[1,2-a:4′,3′-d]pyrimidin-2(11H)-yl)acetonitrile]	300 to 1000
O=c1c2c(nc3cc(C#Cc4ccc(F)cc4)ccn13)CCCCCC2 [Example 17.5, 3-((4-fluorophenyl)ethynyl)-8,9,10,11-tetrahydro-6H-cycloocta[d]pyrido[1,2-a]pyrimidin-12(7H)-one]	< 10
CC1CCc2nc3cc(C#Cc4ccccn4)ccc3c(=O)n2CC1 (single isomer, unassigned) [6.10/6.11 faster moving enantiomer (fraction 1), 8-methyl-3-(pyridin-2-ylethynyl)-7,8,9,10-tetrahydroazepino[2,1-b]quinazolin-12(6H)-one]	< 10
O=c1c2ccc(C#Cc3ccnc(F)c3)cc2nc2n1CCC1(CC2)OCCO1 [Example 7.17]	30 to 100
Cc1noc(C)c1C#Cc1ccc2c(=O)n3c(nc2c1)CCC1(CC3)OCCO1 [Example 7.67]	10 to 30
CC1CN(C)Cc2nc3cc(C#Cc4ccccn4)ccc3c(=O)n21 (stereo not shown) [Example 5.15, 2,4-dimethyl-9-(pyridin-2-ylethynyl)-3,4-dihydro-1H-pyrazino[2,1-b]quinazolin-6(2H)-one]	30 to 100
Cn1c(C2CCOC2)nc2cc(C#Cc3cccc(F)c3)ccc2c1=O (stereo not shown) [Example 2.2, 7-((3-fluorophenyl)ethynyl)-3-methyl-2-(tetrahydrofuran-3-yl)quinazolin-4(3H)-one]	300 to 1000
COCCN1CCc2nc3cc(C#Cc4cccc(F)c4)ccc3c(=O)n2CC1 [Example 8.10, 8-((3-fluorophenyl)ethynyl)-3-(2-methoxyethyl)-2,3,4,5-tetrahydro-[1,4]diazepino[7,1-b]quinazolin-11(1H)-one]	100 to 300
O=c1c2ccc(C#Cc3ccccn3)cc2nc2n1CCC1(CCCO1)CC2 (stereo not shown) [Example 6.27, 3-(pyridin-2-ylethynyl)-4′,5′,9,10-tetrahydro-3′H,6H-spiro[azepino[2,1-b]quinazoline-8,2′-furan]-12(7H)-one]	30 to 100
O=c1c2ccc(C#CC3CCCCC3)cc2nc2n1CCC1(CC2)OCCO1 [Example 7.54]	300 to 1000
O=c1c2ccc(C#Cc3ccccn3)cc2nc2n1CCC(C(F)(F)F)CC2 (stereo not shown) [Example 6.38, 3-(pyridin-2-ylethynyl)-8-(trifluoromethyl)-7,8,9,10-tetrahydroazepino[2,1-b]quinazolin-12(6H)-one]	30 to 100
